Results: patent US11964973B2 (priority 2019, dated 2024)
Where two headings read alike, the source gives them in different places.

What was measured:
DGKα [1] = molecular target: T1, DGKα (Homo sapiens (Human), UniProt P23743); assay: DGKα ADPGLO assay; assay type: biochemical
DGKα [2] = molecular target: T1, DGKα; assay: biochemical; assay type: biochemical; conditions: liposome (LIPGLO) assay; read-out: DGKα LIPGLO IC50
human DGKζ = human DGKζ (Homo sapiens (Human), UniProt Q13574); assay: biochemical; assay type: biochemical; conditions: liposome (LIPGLO) assay; read-out: DGKζ LIPGLO IC50
[3] = test system: Human venous whole blood (IFN-γ); assay: Human whole blood IFN-γ assay; assay type: cell-based
Experimental: Assay 10: Human Whole Blood IFN-γ Assay
Human venous whole blood (22.5 μL per well), obtained from healthy donors, was pre-treated with compounds for one hour at 37° C. in a humidified 95% air/5% CO2 incubator. The blood was stimulated with 2.5 μL anti-human CD3 and anti-CD28 mAb at a final concentration of 1 μg/mL each for 24 hours at 37° C. IFN-γ in the supernatants was measured using AlphLISA kit (Cat #AL217).

naïve human CD8 T cells = assay: CellTiter-Glo CD8 T cell proliferation assay; assay type: cell-based; conditions: Homo sapiens, read-out: CD8 GLO Normalized EC50
Method in brief: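 Thawed naïve human CD8 T cells (20 k/well) were stimulated with plate-bound anti-CD3 (0.1 μg/mL coating) and 0.5 μg/ml soluble anti-CD28, with compounds added right after plating. After 72 h at 37° C, proliferation was read by CellTiter-Glo luminescence. The signal from stimulated cells was taken as background.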

[4] = test system: OT-1 CD8+ T cells with SIINFEKL-loaded MC38 tumor cells; assay: Murine cytotoxic T lymphocyte assay (IFN-γ); assay type: cell-based, mouse; conditions: Mus musculus, MC-38; murine cytotoxic T lymphocyte, IFN-γ; read-out: msCTL INFg IC50
Method in brief: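 OT-1 CD8+ T cells, expanded 5 days with OVA peptide and mIL2, pretreated 1 h with DGK inhibitor, then cocultured overnight at 37 °C with peptide-pulsed MC38 cells (1:10 ratio). IFN-γ in supernatant measured after 24 h by AlphaLisa.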

[5] = test system: naïve human CD8 T cells (IFN-γ); assay: Human CD8 T cells IFN-γ assay; assay type: cell-based; conditions: T-cell, read-out: HuCD8 INFG Normalized EC50
Experimental: Assay 8: Human CD8 T Cells IFN-γ Assay
Frozen naïve human CD8 T cells were thawed in AIM-V media, incubated for 2 h in 37° C., and counted. The 384-well tissue culture plate was coated overnight at 4° C. with 20 μL anti-human CD3 at 0.05 μg/mL in PBS, which was removed off the plate before 40,000 cells per 40 microliters CD8 T cells with 0.1 μg/mL soluble anti-human CD28 were added to each well. The compounds were transferred using an Echo liquid handler to the cell plate immediately after the cells were plated. After 20 h incubation at 37° C. incubator, 3 microliters per well supernatants transferred into a new 384-well white assay plate for cytokine measurement.
Interferon-γ (IFN-γ) was quantitated using the AlphLISA kit (Cat #AL217) as described by the manufacturer manual (Perkin Elmer). The counts from each well were converted to IFN-γ concentration (pg/mL).

[6] = Homo sapiens, 24 h, human whole blood, anti-CD3 plus anti-CD28, 24 hours; read-out: INFg Whole Blood Normalized Agonist EC50

T1 sequence (P23743 whole entry, looked up): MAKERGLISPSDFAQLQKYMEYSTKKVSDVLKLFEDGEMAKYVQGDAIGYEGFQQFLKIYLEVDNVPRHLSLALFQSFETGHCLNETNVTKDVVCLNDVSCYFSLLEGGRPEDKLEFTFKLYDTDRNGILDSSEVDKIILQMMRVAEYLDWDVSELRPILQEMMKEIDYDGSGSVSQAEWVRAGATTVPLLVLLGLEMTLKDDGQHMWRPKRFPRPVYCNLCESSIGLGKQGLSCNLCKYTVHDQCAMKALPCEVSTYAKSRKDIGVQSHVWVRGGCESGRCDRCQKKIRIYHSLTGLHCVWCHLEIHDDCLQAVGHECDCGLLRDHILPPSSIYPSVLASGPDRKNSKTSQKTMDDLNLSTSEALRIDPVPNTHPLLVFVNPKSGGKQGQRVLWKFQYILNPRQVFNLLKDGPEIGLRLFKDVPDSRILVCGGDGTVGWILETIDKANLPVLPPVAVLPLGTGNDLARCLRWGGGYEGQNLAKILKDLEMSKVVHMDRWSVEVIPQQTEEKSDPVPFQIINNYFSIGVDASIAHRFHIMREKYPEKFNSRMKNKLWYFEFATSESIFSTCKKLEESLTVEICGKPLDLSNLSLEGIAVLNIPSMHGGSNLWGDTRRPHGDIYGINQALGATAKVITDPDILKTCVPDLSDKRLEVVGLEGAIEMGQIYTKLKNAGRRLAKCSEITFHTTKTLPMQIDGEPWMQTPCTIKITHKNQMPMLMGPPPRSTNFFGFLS
Sequence of human DGKζ (Q13574 whole entry, looked up): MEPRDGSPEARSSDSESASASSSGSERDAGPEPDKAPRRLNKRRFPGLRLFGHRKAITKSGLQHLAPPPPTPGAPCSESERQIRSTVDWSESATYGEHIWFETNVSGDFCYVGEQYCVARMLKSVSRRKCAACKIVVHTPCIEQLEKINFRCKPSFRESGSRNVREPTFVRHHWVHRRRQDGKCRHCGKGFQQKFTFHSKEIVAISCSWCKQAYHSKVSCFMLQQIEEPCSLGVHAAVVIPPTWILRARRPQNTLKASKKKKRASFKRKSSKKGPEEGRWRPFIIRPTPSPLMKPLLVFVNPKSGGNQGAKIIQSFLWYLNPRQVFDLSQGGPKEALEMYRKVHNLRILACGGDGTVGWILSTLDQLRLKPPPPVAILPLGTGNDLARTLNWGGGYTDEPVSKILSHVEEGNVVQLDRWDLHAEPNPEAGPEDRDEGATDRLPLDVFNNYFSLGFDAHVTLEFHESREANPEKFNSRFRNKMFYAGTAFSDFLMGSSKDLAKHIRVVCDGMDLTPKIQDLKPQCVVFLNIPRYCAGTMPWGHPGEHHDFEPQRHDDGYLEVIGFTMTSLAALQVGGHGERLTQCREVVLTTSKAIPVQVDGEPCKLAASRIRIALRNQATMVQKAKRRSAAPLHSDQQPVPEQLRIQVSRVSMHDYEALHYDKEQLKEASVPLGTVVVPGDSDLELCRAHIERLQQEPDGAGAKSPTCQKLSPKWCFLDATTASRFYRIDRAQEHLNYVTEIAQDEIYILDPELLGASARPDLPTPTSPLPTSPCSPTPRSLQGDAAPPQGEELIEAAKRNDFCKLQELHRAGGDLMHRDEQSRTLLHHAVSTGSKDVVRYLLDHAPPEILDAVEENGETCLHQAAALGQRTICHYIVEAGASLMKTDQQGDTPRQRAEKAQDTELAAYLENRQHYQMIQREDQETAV

SMILES: C[C@@H]1CN(c2cc(=O)n(C)c3ccc(C#N)nc23)CC[C@H]1Oc1cccc(C2CC2)c1 (single isomer, unassigned) [Example 92]
- IC50 (DGKα [1]): 0.00051 µM
- IC50 (DGKα [2]): 0.028 µM
- IC50 (human DGKζ): 16 µM
- EC50 ([3]; human whole blood, anti-CD3 plus anti-CD28, 24 hours; read-out: INFg Whole Blood Normalized Agonist EC50): 0.91 µM

SMILES: CC[C@@H]1CN(c2cc(=O)n(C)c3ccc(C#N)nc23)CC[C@H]1Oc1cccc(C(C)C)c1 (single isomer, unassigned) [Example 138]
- IC50 (DGKα [1]): 0.0052 µM
- IC50 (DGKα [2]): 0.024 µM
- IC50 (human DGKζ): 0.8 µM
- EC50 ([3]; read-out: INFg Whole Blood Normalized Agonist EC50; human whole blood, anti-CD3 plus anti-CD28, 24 hours): 0.34 µM

SMILES: Cn1c(=O)c(C#N)c(N2CCC(Oc3ccc(C(C)(C)C)cc3)CC2)c2nc(Cl)ccc21 [Example 15, 4-(4-(4-(tert-butyl)phenoxy)piperidin-1-yl)-6-chloro-1-methyl-2-oxo-1,2-dihydro-1,5-naphthyridine-3-carbonitrile]
- IC50 (DGKα [2]): 0.51 µM
- EC50 (naïve human CD8 T cells): 0.32 µM
- IC50 [4]: 0.29 µM
- EC50 [5]: 0.87 µM
- IC50 (human DGKζ): 7.4 µM
- EC50 [3, 6]: 7.6 µM

SMILES: Cn1c(=O)c(C#N)c(N2CCC(Oc3ccccc3Cl)CC2)c2nc(Cl)ccc21 [Example 18, 6-chloro-4-(4-(2-chlorophenoxy)piperidin-1-yl)-1-methyl-2-oxo-1,2-dihydro-1,5-naphthyridine-3-carbonitrile]
- IC50 (DGKα [2]): 2.6 µM
- EC50 (naïve human CD8 T cells): 0.079 µM
- IC50 [4]: 1.5 µM
- EC50 [5]: 0.19 µM
- IC50 (human DGKζ): 13 µM
- EC50 [3, 6]: 10 µM
